Target: T1, SmaR (Serratia marcescens, UniProt Q14RS3)
T1 construct: pure recombinant protein
Experiment: microscale thermophoresis
Format: binding

T1 sequence (Q14RS3 1-248): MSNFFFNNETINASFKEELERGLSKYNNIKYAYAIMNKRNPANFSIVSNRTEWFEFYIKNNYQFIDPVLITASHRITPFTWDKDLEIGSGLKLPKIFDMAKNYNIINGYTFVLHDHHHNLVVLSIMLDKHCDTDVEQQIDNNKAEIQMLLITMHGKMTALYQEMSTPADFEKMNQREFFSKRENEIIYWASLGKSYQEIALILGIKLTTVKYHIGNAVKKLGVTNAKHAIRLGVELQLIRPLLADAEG

Cc1ccc(/C=C/[N+](=O)[O-])cc1 [compound 28, (E)‐1‐methyl‐4‐(2‐nitrovinyl)benzene]
Kd: 38.9 µM

Reference: article PMC11442132, “Discovery of β‐nitrostyrene derivatives as potential quorum sensing inhibitors for biofilm inhibition and antivirulence factor therapeutics against Serratia marcescens” (mLife, 2024)
